Results as given in patent US8669292B2, “Therapeutic formulation” (Orion Therapeutics, LLC, priority 2005, dated 2014).
Converted amounts (≈) assume the structure as drawn. Read-outs that look alike come from different tables or passages of the source. Each block holds one compound with its values, some of them ahead of it.

Assays:
[1] = tested on: HCT-116 human colon cancer cells; assay: IC50 assay (concentration-cell number study); assay type: cell-based
Description: Concentration-cell number studies (IC50 assay) were carried out utilizing 12 separate compositions (numbered 1-12 below) against 13 different cancer cell lines (see Table 6). […] On day 3, cells are exposed to different concentrations of the drug. Flasks are incubated for 120 h (5 d) in a 5% CO2 incubator at 37° C. and the cells harvested with trypsin, washed once with Hanks Balanced Salt Solution (HBSS) and re-suspended in HBSS containing 0.08% Trypan Blue. Both viable and dead cells are counted using a hemocytometer. Viable cell numbers are normalized to an untreated control and plotted as a function of drug concentration. The IC50 value is determined using Prism 4.0.

[2] = ORAC total (Brunswick Test # A103); assay type: biochemical; details: for TOTAL ORAC SCORE: Cantron oral liquid scores converted from TE/L to TE/g
Description: (§1) Peroxyl radical scores are measured in the ORAC test (Oxygen Radical Absorption Capacity). Hydroxyl Radicals are tested in the HORAC test (Hydroxyl Radical Absorption Capacity). Peroxynitrite Radicals are tested in the NORAC test (Peroxynitrite Radical Absorption Capacity). Superoxide Radicals are measured in the SOD test (Superoxide Radical Absorption Capacity). The ORAC test measures the antioxidant activity against peroxyl radicals by determining how many peroxyl free radicals can be absorbed by a given antioxidant as compared to the vitamin E analog-Trolox. The result is expressed as micromoles of Trolox equivalent per liter (TE/L) for liquid formulations and Trolox equivalent per gram (TE/g) for dry powders. Brunswick tested the Applicant's compounds for antioxidant activity against both hydrophilic and lipophilic peroxyl radicals as expressed in the ORAC total (see table 7).

[3] = ORAC hydro (Brunswick Test # A101); assay type: biochemical; details: for ORAC hydro SCORE: Cantron oral liquid scores converted from TE/L to TE/g
Description: as §1

[4] = ORAC lipo (Brunswick Test # A102); assay type: biochemical; details: for ORAC lipo SCORE: Cantron oral liquid scores converted from TE/L to TE/g
Description: as §1

[5] = HORAC (Brunswick Test # A104); assay type: biochemical; details: for HORAC SCORE: Cantron oral liquid scores converted from CAE/L to CAE/g
Description: Peroxyl radical scores are measured in the ORAC test (Oxygen Radical Absorption Capacity). Hydroxyl Radicals are tested in the HORAC test (Hydroxyl Radical Absorption Capacity). Peroxynitrite Radicals are tested in the NORAC test (Peroxynitrite Radical Absorption Capacity). Superoxide Radicals are measured in the SOD test (Superoxide Radical Absorption Capacity). […] The result is expressed as micromoles of caffeic acid equivalent per liter (CAE/L) for liquid formulations and caffeic acid equivalent per gram (CAE/g) for dry powders.

[6] = NORAC (Brunswick Test # A105); assay type: biochemical; details: for NORAC SCORE: Cantron oral liquid scores converted from TE/L to TE/g
Description: Peroxyl radical scores are measured in the ORAC test (Oxygen Radical Absorption Capacity). Hydroxyl Radicals are tested in the HORAC test (Hydroxyl Radical Absorption Capacity). Peroxynitrite Radicals are tested in the NORAC test (Peroxynitrite Radical Absorption Capacity). Superoxide Radicals are measured in the SOD test (Superoxide Radical Absorption Capacity). Applicant's compounds and compositions were tested by the NORAC test (Brunswick test # A 105), which measures the activity of a given antioxidant against peroxynitrite radicals. NORAC tests were based on the method of Chung H. et al (2001) Journal Agricultural of Food Chemistry, 49: 3614-3621. Scores are expressed in micromoles of trolox equivalent per liter (TE/L) for liquid formulations and Trolox equivalent per gram (TE/g) for dry powders.

[7] = SORAC (Brunswick Test # A106); assay type: biochemical; details: for SOD SCORE: Cantron oral liquid scores converted from unitsSODeq/L to unitsSODeq/g
Description: Peroxyl radical scores are measured in the ORAC test (Oxygen Radical Absorption Capacity). Hydroxyl Radicals are tested in the HORAC test (Hydroxyl Radical Absorption Capacity). Peroxynitrite Radicals are tested in the NORAC test (Peroxynitrite Radical Absorption Capacity). Superoxide Radicals are measured in the SOD test (Superoxide Radical Absorption Capacity). Applicant's compounds and compositions were tested by the SORAC test (Brunswick test #106), which measures the activity of a given antioxidant against Superoxide radicals. The tests were conducted based on the method of Zhao et al (1999) Journal of Agricultural and Food Chemistry, (1999), 47: 2537-2543. The calibration standard was SOD and was expressed as a unit SOD equivalent per liter (unitsSODeq/L) for liquid formulations and unit SOD equivalent per gram (unitsSODeq/g) for dry powders.

H125 Lung Cancer = assay: IC50 assay (concentration-cell number study); assay type: cell-based
Description: (§2) These cells are grown in 5 ml culture medium (RPMI-1640+15% Bovine Calf serum containing 1% penicillin-streptomycin, and 1% Glutamine) at 37° C. and 5% CO2 at a starting concentration of 5×10^4 cells/T25 flask. On day 3, cells are exposed to different concentrations of the drug. Flasks are incubated for 120 h (5 d) in a 5% CO2 incubator at 37° C. and the cells harvested with trypsin, washed once with Hanks Balanced Salt Solution (HBSS) and re-suspended in HBSS containing 0.08% Trypan Blue. Both viable and dead cells are counted using a hemocytometer. Viable cell numbers are normalized to an untreated control and plotted as a function of drug concentration. The IC50 value is determined using Prism 4.0.
(§3) Cell Lines utilized in IC50 Assays: HCT-116 human colon cancer cells, H125 Lung Cancer, MCF-7, Breast Cancer, MDA-235 Breast Cancer, LNCaP Prostate Cancer, OVAR-5 Ovarian Cancer, U251N Brain Cancer Sarcoma 180, Panc 01Pancreatic Cancer, CCRF-CEM Leukemia, HEP-G2 Liver Cancer, L1210 Leukemia, Colon 38 Colon Cancer.

MCF-7 Breast Cancer = assay: IC50 assay (concentration-cell number study); assay type: cell-based
Description: (§4) Concentration-cell number studies (IC50 assay) were carried out utilizing 12 separate compositions (numbered 1-12 below) against 13 different cancer cell lines (see Table 6). These cells are grown in 5 ml culture medium (RPMI-1640+15% Bovine Calf serum containing 1% penicillin-streptomycin, and 1% Glutamine) at 37° C. and 5% CO2 at a starting concentration of 5×10^4 cells/T25 flask. On day 3, cells are exposed to different concentrations of the drug. Flasks are incubated for 120 h (5 d) in a 5% CO2 incubator at 37° C. and the cells harvested with trypsin, washed once with Hanks Balanced Salt Solution (HBSS) and re-suspended in HBSS containing 0.08% Trypan Blue. Both viable and dead cells are counted using a hemocytometer. Viable cell numbers are normalized to an untreated control and plotted as a function of drug concentration. The IC50 value is determined using Prism 4.0.

MDA-235 Breast Cancer = assay: IC50 assay (concentration-cell number study); assay type: cell-based; details: for IC50: 120 h exposure
Description: as §4

LNCaP Prostate Cancer = assay: IC50 assay (concentration-cell number study); assay type: cell-based; details: for IC50: 120 h exposure
Description: as §4

OVAR-5 Ovarian Cancer = assay: IC50 assay (concentration-cell number study); assay type: cell-based; details: for IC50: 120 h exposure
Description: as §4

U251N Brain Cancer = assay: IC50 assay (concentration-cell number study); assay type: cell-based; details: for IC50: 120 h exposure
Description: as §4

Sarcoma 180 = assay: IC50 assay (concentration-cell number study); assay type: cell-based; details: for IC50: 120 h exposure
Description: as §4

[8] = tested on: Panc 01 Pancreatic Cancer; assay: IC50 assay (concentration-cell number study); assay type: cell-based; details: for IC50: 120 h exposure
Description: as §4

CCRF-CEM Leukemia = assay: IC50 assay (concentration-cell number study); assay type: cell-based; details: for IC50: 120 h exposure
Description: as §4

HEP-G2 Liver Cancer = assay: IC50 assay (concentration-cell number study); assay type: cell-based
Description: as §4

L1210 Leukemia = assay: IC50 assay (concentration-cell number study); assay type: cell-based; details: for IC50: 120 h exposure
Description: as §4

Colon 38 Colon Cancer = assay: IC50 assay (concentration-cell number study); assay type: cell-based; details: for IC50: 120 h exposure
Description: as §2, §3

[9] = tested on: 13 different cancer cell lines; assay: IC50 assays, average or range over all cell lines; assay type: cell-based
Description: as §2, §3

[10] = tested on: HCT-116 human colon cancer cells; assay: Clonogenic dose response; assay type: cell-based
Description: Clonogenic survival of the cells was measured by a standard tissue culture procedure.
Asimicin was prepared in ethanol. Clonogenic survival of the cells was measured by a standard tissue culture procedure.

[11] = in vivo; cited from earlier work
[12] = Homo sapiens, HCT-116, 120 h, HCT-116, 120 h exposure, read-out: IC50

SMILES: O=c1[nH]cc(F)c(=O)[nH]1 [5-Fluorouracil, reference compound]
IC50 [1, 12]: 0.15 µg/mL (≈ 1.15 µM)

SMILES: COc1cccc2c1C(=O)c1c(O)c3c(c(O)c1C2=O)C[C@@](O)(C(=O)CO)C[C@@H]3O[C@H]1C[C@H](N)[C@H](O)[C@H](C)O1 [Adriamycin, reference compound]
IC50 [1, 12]: 0.03 µg/mL (≈ 0.0552 µM)

SMILES: Oc1ccccc1O [Composition 2, Catechol]
TOTAL ORAC SCORE [2]: 73,161 micromoles TE/g | more effective than Cantron NM ([2]; Peroxyl-total score ratio): The Catechol composition is 1702% | ORAC hydro SCORE [3]: 48,479 micromoles TE/g | more effective than the improved Cantron ASV ([3]; Peroxyl-hydro score ratio): is still 507% more effective than | ORAC lipo SCORE [4]: 24,682 micromoles TE/g | more effective than the improved Cantron ASV ([4]; Peroxyl-lipo score ratio): is still 4086.4% more effective | HORAC SCORE [5]: 5,572 micromoles CAE/g | more effective than Cantron NM ([5]; Hydroxyl score ratio): 2,079% more effective than | NORAC SCORE [6]: 2,593 micromoles TE/g | more effective than the improved Cantron ASV ([6]; Peroxynitrite score ratio): is still 409.63% more effective | SOD SCORE [7]: 159,000 unitsSODeq/g | more effective than the improved Cantron ASV ([7]; Superoxide score ratio): is still 441.66% more effective | IC50 times lower than Cantron (times more efficacious than Cantron) ([1]; HCT-116): 7.04 times lower than | calculated cytotoxicity value of catechol ([1]; HCT-116, Cantron score 19.7 multiplied by 12.7% catechol by weight): 2.5019 µg/mL | IC50 [1, 12]: 2.8 µg/mL (≈ 25.4 µM) | IC50 ([1]; Homo sapiens, HCT-116, read-out: calculated cytotoxicity value of catechol, HCT-116, Cantron score 19.7 multiplied by 12.7% catechol by weight): 2.5 µg/mL (≈ 22.7 µM) | IC50 times lower than Cantron (times more efficacious than Cantron) (H125 Lung Cancer): 14.29 times lower than | IC50 (H125 Lung Cancer; Homo sapiens, NCI-H125, 120 h exposure, read-out: IC50): 2.1 µg/mL (≈ 19.1 µM) | IC50 times lower than Cantron (times more efficacious than Cantron) (MCF-7 Breast Cancer): 11.36 times lower than | IC50 (MCF-7 Breast Cancer; 120 h exposure): to 2.2 μg/ml). It is | IC50 (MCF-7 Breast Cancer; Homo sapiens, MCF7, 120 h exposure, read-out: IC50): 2.2 µg/mL (≈ 20 µM) | IC50 times lower than Cantron (times more efficacious than Cantron) (MDA-235 Breast Cancer): 9.33 times lower than | IC50 (MDA-235 Breast Cancer; read-out: IC50): 3 µg/mL (≈ 27.2 µM) | IC50 times lower than Cantron (times more efficacious than Cantron) (LNCaP Prostate Cancer): 18.82 times lower than | IC50 (LNCaP Prostate Cancer; Homo sapiens, read-out: IC50): 1.7 µg/mL (≈ 15.4 µM) | IC50 times lower than Cantron (times more efficacious than Cantron) (OVAR-5 Ovarian Cancer): 3.69 times lower than | IC50 (OVAR-5 Ovarian Cancer; read-out: IC50): 3.2 µg/mL (≈ 29.1 µM) | IC50 times lower than Cantron (times more efficacious than Cantron) (U251N Brain Cancer): 10.45 times lower than | IC50 (U251N Brain Cancer; read-out: IC50): 2.2 µg/mL (≈ 20 µM) | IC50 times lower than Cantron (times more efficacious than Cantron) (Sarcoma 180): 12.11 times lower than | IC50 (Sarcoma 180; Mus musculus, read-out: IC50): 1.9 µg/mL (≈ 17.3 µM) | IC50 times lower than Cantron (times more efficacious than Cantron) [8]: 14.71 times lower than | IC50 ([8]; read-out: IC50): 1.7 µg/mL (≈ 15.4 µM) | IC50 times lower than Cantron (times more efficacious than Cantron) (CCRF-CEM Leukemia): 6.19 times lower than | IC50 (CCRF-CEM Leukemia; Homo sapiens, read-out: IC50): 2.1 µg/mL (≈ 19.1 µM) | IC50 times lower than Cantron (times more efficacious than Cantron) (HEP-G2 Liver Cancer): 4.61 times lower than | IC50 (HEP-G2 Liver Cancer; Homo sapiens, HepG2, 120 h exposure, read-out: IC50): 2.6 µg/mL (≈ 23.6 µM) | IC50 times lower than Cantron (times more efficacious than Cantron) (L1210 Leukemia): 10.52 times lower than | IC50 (L1210 Leukemia; Mus musculus, read-out: IC50): 1.9 µg/mL (≈ 17.3 µM) | IC50 times lower than Cantron (times more efficacious than Cantron) (Colon 38 Colon Cancer): 11.36 times lower than | IC50 (Colon 38 Colon Cancer; read-out: IC50): 2.2 µg/mL (≈ 20 µM) | IC50 ([9]; average of 13 cell lines): 2.3 µg/mL (≈ 20.9 µM) | times more efficacious than Cantron ([9]; average over the cell lines tested): 10.35 times | clonogenic survival ([10]; 24 h exposure, 10 micrograms/ml): 0.1 | effect on clonogenic survival ([10]; 24 h exposure, concentrations up to 1 microgram/ml): no effect | effect on the survival of the tumor cells ([10]; concentration of up to 10 micrograms/ml, exposure time not given): no effect | concentration with cell survival at the 0.1 level ([10]; extended exposure 168 h): 200 picograms/ml | known side effects in animal tests [11]: stomach irritation and hyperplasia

SMILES: O=c1c(O)c(O)c(=O)c1=O [Croconic Acid]
TOTAL ORAC SCORE [2]: 1,106 micromoles TE/g | ORAC hydro SCORE [3]: 1,106 micromoles TE/g | ORAC lipo SCORE [4]: 0 micromoles TE/g | HORAC SCORE [5]: 19 micromoles CAE/g | NORAC SCORE [6]: 1 micromoles TE/g | SOD SCORE [7]: 0 unitsSODeq/g

Second part, led by results:

IC50 [1, 12]: > 100 µg/mL
SMILES: O=C(O)CCCCC1CCSS1 (stereo not drawn) [Alpha-lipoic acid, reference compound]

IC50 ([1]; HCT-116, 120 h exposure): 17.0 µg/mL (≈ 98.8 µM) | IC50 ([1]; HCT-116, 120 h exposure, listed as 4): 17 µg/mL (≈ 98.8 µM) | IC50 (H125 Lung Cancer; 120 h exposure): 53 µg/mL (≈ 308 µM) | IC50 (MCF-7 Breast Cancer; 120 h exposure): 5.9 µg/mL (≈ 34.3 µM) | IC50 (MDA-235 Breast Cancer): 5.8 µg/mL (≈ 33.7 µM) | IC50 (LNCaP Prostate Cancer): 54 µg/mL (≈ 314 µM) | IC50 (OVAR-5 Ovarian Cancer): 28 µg/mL (≈ 163 µM) | IC50 (U251N Brain Cancer): 8.0 µg/mL (≈ 46.5 µM) | IC50 (Sarcoma 180): 51 µg/mL (≈ 296 µM) | IC50 [8]: 24 µg/mL (≈ 139 µM) | IC50 (CCRF-CEM Leukemia): 7.0 µg/mL (≈ 40.7 µM) | IC50 (HEP-G2 Liver Cancer; 120 h exposure): 8.5 µg/mL (≈ 49.4 µM) | IC50 (L1210 Leukemia): 49 µg/mL (≈ 285 µM) | IC50 (Colon 38 Colon Cancer): 19 µg/mL (≈ 110 µM) | IC50 AVG. ([9]; average of 13 cell lines): 25 µg/mL (≈ 145 µM)
SMILES: O=C1C(O)=C(O)C(=O)C(O)=C1O [Composition 4, tetrahydroxy-1,4-quinone]
TOTAL ORAC SCORE [2]: 1,508 micromoles TE/g | ORAC hydro SCORE [3]: 1,507 micromoles TE/g | ORAC lipo SCORE [4]: 1 micromoles TE/g | HORAC SCORE [5]: 129 micromoles CAE/g | NORAC SCORE [6]: 438 micromoles TE/g | SOD SCORE [7]: 145,000 unitsSODeq/g
